The target in assay [1] is T1, human RORγt ligand binding domain (RORγt LBD) (Homo sapiens, UniProt P51449).
T1 construct: His-tag (N); TurboTEV protease cleavage site (ENLYFQG) (N); made in house; host or cells: E. coli (pHIS1, modified pET vector)
T1 sequence (P51449 with tags, fused parts or gaps): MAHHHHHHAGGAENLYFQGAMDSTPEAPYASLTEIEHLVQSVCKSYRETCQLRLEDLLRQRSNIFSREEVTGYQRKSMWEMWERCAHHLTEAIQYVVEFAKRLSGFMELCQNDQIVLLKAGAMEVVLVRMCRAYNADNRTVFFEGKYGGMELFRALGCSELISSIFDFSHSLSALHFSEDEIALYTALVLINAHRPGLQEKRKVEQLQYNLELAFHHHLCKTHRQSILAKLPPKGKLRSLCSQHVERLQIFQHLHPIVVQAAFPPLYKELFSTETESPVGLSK
The assay is described as follows: RORγt ThermoFluor assay (thermal shift, ligand binding affinity). Particulars: estimated from concentration response of thermal shift. The procedure, abridged:
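Thermal shift of 0.065 mg/mL RORγt with 60 μM 1,8-ANS in 100 mM Hepes pH 7.0, 10 mM NaCl, 2.5 mM GSH, 0.002% Tween-20. Compounds in 1:2 series from 10 mM DMSO stock. Dye fluorescence (500 nm emission) tracked versus temperature; ΔTm used to derive KD.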

Another assay has as its target T2, human RORγt LBD (Homo sapiens, UniProt P51449).
T2 construct: expressed in transfected cells
T2 sequence (P51449 258-518): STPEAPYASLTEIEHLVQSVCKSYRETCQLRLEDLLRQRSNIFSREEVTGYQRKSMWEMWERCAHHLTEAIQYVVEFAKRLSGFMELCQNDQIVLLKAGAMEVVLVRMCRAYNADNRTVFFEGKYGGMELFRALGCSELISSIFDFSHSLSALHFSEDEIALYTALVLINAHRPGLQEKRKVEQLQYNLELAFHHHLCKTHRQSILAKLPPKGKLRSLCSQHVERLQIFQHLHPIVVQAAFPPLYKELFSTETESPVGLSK
The assay is described as follows: RORγt reporter assay (GAL4-RORγt LBD luciferase in HEK293T cells). Format: cell-based. Particulars: for IC50: 24 hours compound treatment; for inhibition at 6 µM: HEK-293T, read-out: RORγt reporter Assay, % inhibition @ 6 μM, HEK293T cells, 6 μM compound. A digest of the protocol:
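Read-out is the firefly-to-renilla luciferase ratio versus compound concentration, after 24 h compound exposure of cells in phenol-red-free DMEM/5% lipid-reduced FCS. Cells were HEK293T bulk-transfected with a GAL4-responsive firefly reporter (pGL4.31) and GAL4 DBD–wild-type human RORγt LBD fusion (pBIND, renilla as transfection/viability control).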
(In general: In a reporter assay the amount or activity of a reporter protein is the signal.)

The subject of assay [2] is IL-17 production by CD4 T cells. Description: Human Th17 assay (IL-17 production by CD4 T cells under Th17 differentiation conditions). Format: cell-based. Particulars: IL-17 in supernatant after 3 days. How it is done:
The human Th17 assay tests the effect of RORγt modulatory compounds on IL-17 production by CD4 T cells under conditions which favor Th17 differentiation. Total CD4^+ T cells were isolated from the peripheral blood mononuclear cells (PBMC) of healthy donors using a CD4^+ T cell isolation kit II, following the manufacturer's instructions (Miltenyi Biotec). […] 50 μL of compound at titrated concentrations in DMSO were added into each well at final DMSO concentration at 0.2%. Cells were incubated for 1 hour, then 50 μL of Th17 cell differentiation medium was added to each well. The final concentrations of antibodies and cytokines (R&D Systems) in differentiation medium were: 3×10^6/mL anti-CD3/CD28 beads (prepared using human T cell activation/expansion kit, Miltenyi Biotec), 10 μg/mL anti-IL4, 10 μg/mL anti-IFNγ, 10 ng/mL IL113, 10 ng/mL IL23, 50 ng/mL IL6, 3 ng/mL TGFβ and 20 U/mL IL2. Cells were cultured at 37° C. and 5% CO2 for 3 days. Supernatants were collected and the accumulated IL-17 in culture was measured by using MULTI-SPOT® Cytokine Plate following manufacture's instruction (Meso Scale Discovery). The plate was read using Sector Imager 6000, and IL-17 concentration was extrapolated from the standard curve. The IC50s were determined by GraphPad.

Where a name gives a salt, the structure may show the parent alone. Where only a bound is given, the exact number is not on record here.

Regarding `Cn1cncc1C(O)(c1cncnc1)c1ccc2nc(Cl)c(-c3ccccc3)c(Cl)c2c1` (stereo not shown) [Example 120, (2,4-Dichloro-3-phenylquinolin-6-yl)(1-methyl-1H-imidazol-5-yl)(pyrimidin-5-yl)methanol], the Kd in assay [1] was 130 nM. Besides, the IC50 amounted to 170 nM at human RORγt LBD (HEK293T cells) and 400 nM in assay [2] (Homo sapiens, CD4+ T, 72 h). Further, the inhibition at 6 µM at human RORγt LBD was 98%.
As to `Cc1cc(C(O)(c2ccc(Cl)cc2)c2ccc3nc(N(C)C)c(-c4ccccc4)c(Cl)c3c2)on1` (stereo not shown) [Example 134, (4-Chloro-2-(dimethylamino)-3-phenylquinolin-6-yl)(4-chlorophenyl)(3-methylisoxazol-5-yl)methanol •TFA], the Kd in assay [1] was 290 nM. The IC50 against human RORγt LBD (HEK293T cells) was determined as 520 nM; in assay [2] (Homo sapiens, CD4+ T, 72 h) it was 1100 nM. The inhibition at 6 µM on human RORγt LBD stood at 96%.
The corresponding values for `CN(C)c1c(-c2ccccc2)c(Cl)nc2ccc(C(O)(c3cccnc3)c3cncn3C)cc12` (stereo not shown) [Example 35, [2-Chloro-4-(dimethylamino)-3-phenylquinolin-6-yl](1-methyl-1H-imidazol-5-yl)pyridin-3-ylmethanol•TFA] are 330 nM, 340 nM, 770 nM and 97%.
As for `COc1nc2c(C)cc(C(O)(c3ccc(C(F)(F)F)nc3)c3cncn3C)cc2c(Cl)c1-c1ccc(OC(F)(F)F)cc1` (single isomer, unassigned) [Example 183c, (4-Chloro-2-methoxy-8-methyl-3-(4-(trifluoromethoxy)phenyl)quinolin-6-yl)(1-methyl-1H-imidazol-5-yl)(6-(trifluoromethyl)pyridin-3-yl)methanol], the Kd in assay [1] is 190 nM. The “RORγt reporter Assay, % inhibition @ 6 μM” value at human RORγt LBD (HEK293T cells, 6 μM compound, 6 µM) is given as 73%. For the same compound, the IC50 was 360 nM on human RORγt LBD (HEK293T cells) and 870 nM in assay [2].
For `Cn1cncc1C(O)(c1ccc2nc(Cl)c(-c3ccccc3)c(Cl)c2c1)c1cnccn1` (stereo not shown) [Example 122, (2,4-Dichloro-3-phenylquinolin-6-yl)(1-methyl-1H-imidazol-5-yl)(pyrazin-2-yl)methanol], the Kd in assay [1] was 250 nM. For the same compound, the IC50 against human RORγt LBD (HEK293T cells) amounted to 470 nM; in assay [2] (Homo sapiens, CD4+ T, 72 h) it was 500 nM. At human RORγt LBD, the inhibition at 6 µM amounted to 91%.
The corresponding values for `Cn1cncc1C(O)(c1ccc2nc(C(F)(F)F)c(-c3ccccc3)c(C(F)(F)F)c2c1)c1ccccn1` (single isomer, unassigned) [Example 185b, (1-Methyl-1H-imidazol-5-yl)(3-phenyl-2,4-bis(trifluoromethyl)quinolin-6-yl)(pyridin-2-yl)methanol] are 29 nM, 130 nM, 96 nM and 103%.
For the compound `COC(c1ccncc1)(c1ccc2nc(N(C)C)c(-c3ccccc3)c(Cl)c2c1)c1cncn1C` (stereo not shown) [Example 128, 4-Chloro-6-(methoxy(1-methyl-1H-imidazol-5-yl)(pyridin-4-yl)methyl)-N,N-dimethyl-3-phenylquinolin-2-amine•TFA], the Kd in assay [1] is 97 nM. For the same compound, the IC50 came out at 140 nM against human RORγt LBD (HEK293T cells) and 240 nM in assay [2] (Homo sapiens, CD4+ T, 72 h). Further, the inhibition at 6 µM at human RORγt LBD was 98%.
As to `COCCN(C)c1nc2ccc(C(O)(c3ccncc3)c3cncn3C)cc2c(Cl)c1-c1ccccc1` (stereo not shown) [Example 63, {4-Chloro-2-[(2-methoxyethyl)(methyl)amino]-3-phenylquinolin-6-yl}(1-methyl-1H-imidazol-5-yl)pyridin-4-ylmethanol•TFA], the Kd in assay [1] is 15 nM. For the same compound, the IC50 at human RORγt LBD (HEK293T cells) turned out to be 8.6 nM; in assay [2] (Homo sapiens, CD4+ T, 72 h), 63 nM. The inhibition at 6 µM on human RORγt LBD is 106%.
For `CC(=O)N1CCC(C(O)(c2ccccc2)c2ccc3nc(C(F)(F)F)c(-c4ccccc4)c(C(F)(F)F)c3c2)CC1` (single isomer, unassigned) [Example 169b, 1-(4-(Hydroxy(phenyl)(3-phenyl-2,4-bis(trifluoromethyl)quinolin-6-yl)methyl)piperidin-1-yl)ethanone], in assay [1], the Kd was 3 nM. The IC50 is 3.8 nM against human RORγt LBD (HEK293T cells) and 27 nM in assay [2]. In addition, the inhibition at 6 µM at human RORγt LBD is 94%.
For `Cn1nncc1C(O)(c1ccc2nc(C(F)(F)F)c(-c3ccccc3)c(C(F)(F)F)c2c1)c1cnnn1C` [Example 182, Bis(1-methyl-1H-1,2,3-triazol-5-yl)(3-phenyl-2,4-bis(trifluoromethyl)quinolin-6-yl)methanol], in assay [1], the Kd was 1.5 nM. For the same compound, the inhibition at 6 µM on human RORγt LBD amounted to 94%. Also, the IC50 in assay [2] (Homo sapiens, CD4+ T, 72 h) amounted to 7 nM.
As to `CSc1ncc(C(O)(c2ccc(Cl)cc2)c2ccc3nc(Cl)c(-c4ccccc4)c(Cl)c3c2)n1C` (stereo not shown) [Example 145, (4-Chlorophenyl)(2,4-dichloro-3-phenylquinolin-6-yl)(1-methyl-2-(methylthio)-1H-imidazol-5-yl)methanol], in assay [1], the Kd is 2100 nM. For the same compound, the IC50 at human RORγt LBD (HEK293T cells) came to 250 nM; in assay [2] (Homo sapiens, CD4+ T, 72 h), 1200 nM. Moreover, the inhibition at 6 µM at human RORγt LBD was 93%.
With `OC(c1ccc(Cl)cc1)(c1cncnc1)c1ccc2nc(Cl)c(-c3ccccc3)c(Cl)c2c1` (stereo not shown) [Example 124, (4-Chlorophenyl)(2,4-dichloro-3-phenylquinolin-6-yl)(pyrimidin-5-yl)methanol], the equilibrium dissociation constant (Kd) in assay [1] was 120 nM. In addition, the IC50 turned out to be 220 nM at human RORγt LBD (HEK293T cells) and 920 nM in assay [2] (Homo sapiens, CD4+ T, 72 h). In addition, on human RORγt LBD, the inhibition at 6 µM is 100%.
Turning to `Cc1ccc(C(O)(c2cccc(F)c2)c2ccc3nc(Cl)c(-c4ccccc4)c(Cl)c3c2)cn1` (stereo not shown) [Example 71, (2,4-Dichloro-3-phenylquinolin-6-yl)(3-fluorophenyl)(6-methylpyridin-3-yl)methanol•TFA], in assay [1], the Kd was 310 nM. Besides, the IC50 on human RORγt LBD (HEK293T cells) was 82 nM; in assay [2] (Homo sapiens, CD4+ T, 72 h), 690 nM. Also, the inhibition at 6 µM at human RORγt LBD worked out at 94%.
Consider `CCc1nc2ccc(C(O)(c3ccncc3)c3cncn3C)cc2c(N(C)C)c1-c1ccccc1` (stereo not shown) [Example 98, [4-(Dimethylamino)-2-ethyl-3-phenylquinolin-6-yl](1-methyl-1H-imidazol-5-yl)pyridin-4-ylmethanol•TFA], for which, in assay [1], the Kd was 36 nM. The IC50 is 350 nM at human RORγt LBD (HEK293T cells) and 300 nM in assay [2] (Homo sapiens, CD4+ T, 72 h). The inhibition at 6 µM on human RORγt LBD amounted to 98%.
On the same counts, the results for `CC(=O)N1CCCC(C(O)(c2cccnc2)c2ccc3nc(Cl)c(-c4ccccc4)c(Cl)c3c2)C1` (stereo not shown) [Example 96, (1-Acetylpiperidin-3-yl)(2,4-dichloro-3-phenylquinolin-6-yl)pyridin-3-ylmethanol•TFA] are 29 nM, 370 nM, above 6000 nM and 98%.
Take `CC(C)Oc1nc2ccc(C(O)(c3ccncc3)c3cncn3C)cc2c(Cl)c1-c1ccccc1` (stereo not shown) [Example 89, [4-Chloro-2-(1-methylethoxy)-3-phenylquinolin-6-yl](1-methyl-1H-imidazol-5-yl)pyridin-4-ylmethanol•TFA]: the Kd in assay [1] is 34 nM. For the same compound, the IC50 came to 160 nM against human RORγt LBD (HEK293T cells) and 300 nM in assay [2] (Homo sapiens, CD4+ T, 72 h). Further, on human RORγt LBD, the inhibition at 6 µM is 99%.
For `COc1cc(C(O)(c2ccc3nc(Cl)c(-c4ccccc4)c(Cl)c3c2)c2cncn2C)ccn1` (stereo not shown) [Example 68, (2,4-Dichloro-3-phenylquinolin-6-yl)(2-methoxypyridin-4-yl)(1-methyl-1H-imidazol-5-yl)methanol•TFA], the Kd in assay [1] was 3.9 nM. Moreover, the IC50 against human RORγt LBD (HEK293T cells) was 5.8 nM; in assay [2] (Homo sapiens, CD4+ T, 72 h), 48 nM. The inhibition at 6 µM on human RORγt LBD was found to be 103%.

Broadly, the Kd is the concentration at which binding is half-saturated. The IC50 is the concentration that inhibits the measured activity by half. As usually defined, the inhibition is the change of the read-out against control, counted positive when it falls.

The values above are taken from US9309222B2, “Phenyl linked quinolinyl modulators of RORγt” (Janssen Pharmaceutica NV, priority 2012, dated 2016).
